In patent publication US7915293B2, “Ubiquitin ligase inhibitors” (Rigel Pharmaceuticals, Inc., priority 2003, dated 2011):

How the values were obtained:
Parameters in all cases: key: “+” indicates that the compound exibits inhibitory activity; “−” indicates that low or no inhibitory activity was observed
A549 cells = experiment: Cell proliferation assay, photographic image analysis of proliferation, apoptosis and death (PAD assay), A549; assay type: cell-based; conditions: 6 concentrations tested
Description: (§1) A549 (ATCC# CCL-185), HeLa (ATCC# CCL-2), HCT116 (ATCC# CCL-247), and H1299 (ATCC# CRL-5803) cells were maintained in T175 flasks following the ATCC recommended media and handling procedures. Flasks reaching approximately 70% confluency were trypsinized and resuspended in RPMI media (Cell-Gro catalog number 10-040-CM) modified to contain 5% FBS, 100 ug/mlPen/Strep (Cell-Gro catalog number 30-002-CL), and 0.3 mg/ml L-Glutamine (Cell-Gro catalog number 25-003-CL). A 20,000 cells/ml solution was made for plating. Cells were plated in black Packard 96 well plates by placing 100 μl per well (2,000 cells per well).
(§2) Compounds and additional media were added 24 hours after cell plating. A compound master plate was created with concentrations 500 times greater than the final concentration added to the cells. All compound testing was done in duplicate using 6.3 fold dilutions starting with 10 mM. All outside wells (and 4 internal wells) were DMSO controls. Taxol and at least one additional control were run on all plates. Three microliters of the compound master plate were added to deep well blocks containing 750 μl of RPMI media. One hundred microliters were transferred from the compound/media deep well blocks to the plated cells resulting in a 500 fold dilution of the compounds. Cells were grown at 37° C., 5% CO2 for 48 hours.
(§3) Cells to be analyzed by photography were fixed and stained. One hundred microliters of media were removed and 100 μl of 9.3% […] was added to each well. Plates were left on the benchtop for 45 minutes. A staining solution containing 1.55 μl of 1 mg/ml DAPI added to 18.75 ml PBS was warmed for 15 minutes at 37° C. The cells were aspirated prior to washing with 100 μl of PBS. Seventy microliters of PBS were aspirated and 170 μl of the DAPI solution were added to each well of fixed cells. Plates were left at room temperature for one hour then aspirated and washed twice with 100 μl of PBS. The stained cells were left at 4° C. for a minimum of 16 hours before photographic analysis with Array Scan II (Cellomics). Analysis of the photographic images to determine numbers of live cells (proliferation), apoptotic cells and dead cells, were according to the methods described in U.S. Provisional Patent Application Ser. No. 60/406,714, which incorporated herein in its entirety.

HeLa cells = experiment: Cell proliferation assay, photographic image analysis of proliferation, apoptosis and death (PAD assay), HeLa; assay type: cell-based; conditions: 6 concentrations tested
Description: as §1, §2, §3

[1] = molecular target: E3 (His-APC11/APC2-"APC") (Homo sapiens, UniProt Q9NYG5+Q9UJX6); experiment: Plate-based E3 ligase assay (APC FLAG), auto-ubiquitination; assay type: biochemical; conditions: for APC Flag 8 pt: 8 concentrations tested
Sequence of E3 (His-APC11/APC2-"APC") (Q9NYG5 whole entry): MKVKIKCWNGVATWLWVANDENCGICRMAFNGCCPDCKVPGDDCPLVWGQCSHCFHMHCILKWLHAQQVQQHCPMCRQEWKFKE
Sequence of E3 (His-APC11/APC2-"APC") (Q9UJX6 whole entry): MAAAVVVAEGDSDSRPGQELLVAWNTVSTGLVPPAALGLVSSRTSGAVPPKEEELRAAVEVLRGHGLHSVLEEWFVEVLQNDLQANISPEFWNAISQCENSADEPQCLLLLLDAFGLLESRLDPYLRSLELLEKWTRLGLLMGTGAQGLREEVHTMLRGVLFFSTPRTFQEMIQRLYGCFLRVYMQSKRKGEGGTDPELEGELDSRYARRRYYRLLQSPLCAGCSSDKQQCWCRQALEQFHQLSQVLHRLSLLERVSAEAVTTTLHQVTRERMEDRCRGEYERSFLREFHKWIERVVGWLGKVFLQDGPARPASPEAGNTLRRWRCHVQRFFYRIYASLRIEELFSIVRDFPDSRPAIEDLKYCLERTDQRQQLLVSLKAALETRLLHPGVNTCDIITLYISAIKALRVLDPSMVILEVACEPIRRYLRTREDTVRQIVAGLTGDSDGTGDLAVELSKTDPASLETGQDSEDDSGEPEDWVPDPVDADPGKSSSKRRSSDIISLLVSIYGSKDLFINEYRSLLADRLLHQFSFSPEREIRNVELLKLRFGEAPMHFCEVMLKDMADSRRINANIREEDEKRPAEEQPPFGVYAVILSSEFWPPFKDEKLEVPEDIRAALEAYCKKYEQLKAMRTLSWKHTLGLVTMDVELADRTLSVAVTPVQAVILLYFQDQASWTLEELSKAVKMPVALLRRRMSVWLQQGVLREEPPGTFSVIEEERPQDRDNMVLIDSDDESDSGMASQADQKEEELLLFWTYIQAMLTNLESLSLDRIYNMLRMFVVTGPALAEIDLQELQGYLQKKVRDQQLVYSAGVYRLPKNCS
How it was run: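 His-APC11/APC2 auto-ubiquitination was run in casein-blocked nickel plates for 1 h at room temperature, with E1 at 5 ng/well, UbcH5c at 20 ng/well and APC at 100 ng/well. Buffer was 62.5 mM Tris pH 7.6, 3 mM MgCl2, 1 mM DTT, 2.5 mM ATP and Flag-ubiquitin at 100 ng/well. Detection used anti-Flag/HRP chemiluminescence, and IC50 was typically from 6 or 8 concentrations versus a DMSO control.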

APC Flag 8 pt [1]	APC Flag (2 pt) ([1]; 2 concentrations tested)	SMILES	PAD Assay, A549 6 pt (A549 cells)	PAD Assay, HELA 6 pt (HeLa cells)
+		Cc1cc2cc(NS(=O)(=O)c3cc(Cl)c(Oc4ccc([N+](=O)[O-])cc4Cl)c(Cl)c3)ccc2[nH]1 [Compound 244, 3,5-dichloro-4-(2-chloro-4-nitrophenoxy)-N-(2-methyl-1H-indol-5-yl)benzene sulfonamide]	+	+
−		O=[N+]([O-])c1ccc(Oc2c(Cl)cc(S(=O)(=O)Nc3ccc4cn[nH]c4c3)cc2Cl)c(Cl)c1 [Example 171, 3,5-dichloro-4-(2-chloro-4-nitrophenoxy)-N-1H-indazol-6-ylbenzenesulfonamide]	+	−
+		O=[N+]([O-])c1ccc(Oc2c(Cl)cc(S(=O)(=O)Nc3cc(F)c(F)cc3F)cc2Cl)c(Cl)c1 [Example 199, 3,5-dichloro-4-(2-chloro-4-nitrophenoxy)-N-(2,4,5-trifluorophenyl)benzenesulfonamide]	+	+
	− (2 pt)	Cc1cc(NS(=O)(=O)c2cc(Cl)c(Oc3ccc([N+](=O)[O-])cc3Cl)c(Cl)c2)no1 [Example 217, 3,5-dichloro-4-(2-chloro-4-nitrophenoxy)-N-(5-methylisoxazol-3-yl)benzenesulfonamide]	−	−
+		Cc1ccc(C(F)(F)F)cc1NS(=O)(=O)c1cc(Cl)c(Oc2ccc([N+](=O)[O-])cc2Cl)c(Cl)c1 [Example 229, 3,5-dichloro-4-(2-chloro-4-nitrophenoxy)-N-[2-methyl-5-(trifluoromethyl)phenyl] benzenesulfonamide]	+	+
+		CC(C)(C)c1cccc(C(C)(C)C)c1NS(=O)(=O)c1cc(Cl)c(Oc2ccc([N+](=O)[O-])cc2Cl)c(Cl)c1 [Example 231, 3,5-dichloro-4-(2-chloro-4-nitrophenoxy)-N-(2,6-di-tert-butylphenyl)benzenesulfonamide]	+	+
+		O=[N+]([O-])c1ccc(Oc2c(Cl)cc(S(=O)(=O)Nc3cccc(F)c3)cc2Cl)c(Cl)c1 [Example 232, 3,5-dichloro-4-(2-chloro-4-nitrophenoxy)-N-(3-fluorophenyl)benzenesulfonamide]	+	+
+		Cc1c(F)cccc1NS(=O)(=O)c1cc(Cl)c(Oc2ccc([N+](=O)[O-])cc2Cl)c(Cl)c1 [Example 234, 3,5-dichloro-4-(2-chloro-4-nitrophenoxy)-N-(3-fluoro-2-methylphenyl)benzene-sulfonamide]	+	+
+		Cc1cc(F)ccc1NS(=O)(=O)c1cc(Cl)c(Oc2ccc([N+](=O)[O-])cc2Cl)c(Cl)c1 [Example 236, 3,5-dichloro-4-(2-chloro-4-nitrophenoxy)-N-(4-fluoro-2-methylphenyl)benzene-sulfonamide]	+	+
+		O=[N+]([O-])c1ccc(Oc2c(Cl)cc(S(=O)(=O)Nc3cc(F)ccc3F)cc2Cl)c(Cl)c1 [Example 237, 3,5-dichloro-4-(2-chloro-4-nitrophenoxy)-N-(2,5-difluorophenyl)benzenesulfonamide]	+	+
+		O=[N+]([O-])c1ccc(Oc2c(Cl)cc(S(=O)(=O)Nc3c(F)cccc3F)cc2Cl)c(Cl)c1 [Example 238, 3,5-dichloro-4-(2-chloro-4-nitrophenoxy)-N-(2,6-difluorophenyl)benzenesulfonamide]	+	+
+		O=[N+]([O-])c1ccc(Oc2c(Cl)cc(S(=O)(=O)Nc3c(F)cc(F)cc3F)cc2Cl)c(Cl)c1 [Example 241, 3,5-dichloro-4-(2-chloro-4-nitrophenoxy)-N-(2,4,6-trifluorophenyl)benzenesulfonamide]	+	+

More lines, now with the values behind:

SMILES	APC Flag 8 pt [1]	APC Flag (2 pt) ([1]; 2 concentrations tested)	PAD Assay, A549 6 pt (A549 cells)	PAD Assay, HELA 6 pt (HeLa cells)
O=S(=O)(Nc1cc(Cl)cnc1Cl)c1ccc(Oc2ncc(C(F)(F)F)cc2Cl)cc1 [Compound 257, 4-{[3-chloro-5-(trifluoromethyl)pyridin-2-yl]oxy}-N-(2,5-dichloropyridin-3-yl) benzenesulfonamide]	+		+	+
O=S(=O)(Nc1c(F)cccc1F)c1ccc(Oc2ncc(C(F)(F)F)cc2Cl)cc1 [Compound 259, 4-{[3-chloro-5-(trifluoromethy)pyridin-2-yl]oxy}-N-(2,6-difluorophenyl)benzene sulfonamide]	+		−	−
O=[N+]([O-])c1ccc(Oc2ccc(S(=O)(=O)Nc3ccc(C(F)(F)F)cc3Cl)cc2Cl)c(C(F)(F)F)c1 [Compound 265, 3-chloro-N-[2-chloro-4-(trifluoromethyl)phenyl]-4-[4-nitro-2-(trifluoromethyl)phenoxy]benzenesulfonamide]	+		+	+
O=[N+]([O-])c1ccc(Oc2ccc(S(=O)(=O)Nc3cc(Cl)ccc3C(F)(F)F)cc2Cl)c(C(F)(F)F)c1 [Compound 267, 3-chloro-N-[5-chloro-2-(trifluoromethyl)phenyl]-4-[4-nitro-2-(trifluoromethyl)phenoxy]benzenesulfonamide]	+		+	+
O=S(=O)(Nc1cc(Cl)ccc1C(F)(F)F)c1ccc(Oc2ncc(C(F)(F)F)cc2Cl)cc1 [Compound 272, N-[5-chloro-2-(trifluoromethyl)phenyl]-4-{[3-chloro-5-(trifluoromethyl)pyridin-2-yl]oxy}benzenesulfonamide]	+		+	+
O=[N+]([O-])c1ccc(Oc2ccc(NS(=O)(=O)c3cc(Cl)ccc3Cl)cc2)cc1 [Compound 273, 2,5-dichloro-N-[4-(4-nitrophenoxy)phenyl]benzenesulfonamide]	+		+	−
O=S(=O)(Nc1ccc(Oc2ccc(F)cc2)c(Br)c1)c1cccc(Cl)c1 [Compound 282, N-[3-bromo-4-(4-fluorophenoxy)phenyl]-3-chlorobenzenesulfonamide]	+		+	−
COc1ccc(S(=O)(=O)Nc2ccc(Oc3cc(C(F)(F)F)ccc3Cl)cc2F)cc1 [Compound 287, N-{4-[2-chloro-5-(trifluoromethyl)phenoxy]-2-fluorophenyl}-4-methoxybenzenesulfonamide]	+		+	+
O=C(Nc1ccc(Oc2ccc(F)cc2)c(Br)c1)c1cccc(Cl)c1 [Compound 303]	−		+	+
O=C(Nc1cccc(Cl)c1)Nc1ccc(Oc2ccc(F)cc2)c(Br)c1 [Compound 304]	+		+	+
O=[N+]([O-])c1ccc(Oc2c(Cl)cc(S(=O)(=O)Nc3cccc4c3OC(F)(F)C(F)(F)O4)cc2Cl)c(Cl)c1 [Example 192, 3,5-dichloro-4-(2-chloro-4-nitrophenoxy)-N-(2,2,3,3-tetrafluoro-2,3-dihydro-1,4-benzodioxin-5-yl)benzenesulfonamide]	+		−	−
